Like-named read-outs stand apart in the source and are kept apart here.
Key:
[1] = tested on: influenza H3N2/Wisconsin/67/2005; assay: plaque assay of influenza H3N2 replication in MDCK cells; format: cell-based, influenza virus; conditions: 10 μM, control drug
[2] = tested on: herpes simplex virus type 1 strain KOS; assay: plaque inhibition assay of HSV1 strain KOS replication in Vero cells; format: cell-based; conditions: for inhibition of plaque number: compared to media-only treated controls
MDCK canine kidney cells = conditions: for effect on monolayer: compared to cell control wells
[3] = tested on: Vero African green monkey kidney cells

Question: `CCOC(=O)C1=C[C@@H](OC(CC)CC)[C@H](NC(C)=O)[C@@H](N)C1` [Oseltamivir] was tested. Which “inhibition of H3N2 plaques” value [1] did it give?
Answer: completely inhibitory

Question: With `Nc1nc2c(ncn2COCCO)c(=O)[nH]1` [acyclovir, reference compound] as the molecule, how does the “plaque size relative to plaques with 56 μM CLS1N (approx. 0.7 mm)” value ([2]; 5 μM acyclovir control) read?
Answer: approximately the same size

Question: Which results are given for “Ac-ADVDVSAVQAKLGALELNQRDAAAETELRV-NH2 [CLS2A]”?
Answer: cytotoxicity (MDCK canine kidney cells; 59.4 μM (second concentration)): no cytotoxicity; effect on monolayer (MDCK canine kidney cells; 188 μM (highest concentration)): moderate thinning and more intense staining of the monolayer

Question: How did the cytotoxicity (MDCK canine kidney cells; 74.0 μM (second concentration)) turn out when “Ac-GDTVGLIDEQNEASKTNGLGAAEAF-NH2 [CLS2G]” was run?
Answer: no cytotoxicity

Question: And the effect on monolayer (MDCK canine kidney cells; 235 μM (highest concentration))?
Answer: moderate thinning and more intense staining of the monolayer

Question: How did the “density of the monolayer” value ([3]; 188 ug/ml dilution) turn out when “Ac-RQYSVTDALEDVSTSPQSTEEVVQSFLISQ-NH2 [CLS1S]” was run?
Answer: did not affect the density of the monolayer

Question: What about the effect on monolayer ([3]; highest concentration, compared to control untreated cells) of the same molecule?
Answer: moderate thinning

Question: What does the source list for “RQYSVTDALEDVNTSPQSTEEVVQSFLISQ (Artificial anti-viral peptides) [CLS1N]”?
Answer: plaque size ([2]; 5.6 μM (dilution 4)): wild type size; inhibition of plaque number ([2]; 5.6 μM (dilution 4)): not significant inhibition of plaque number; plaque size ([2]; 17.6 μM (dilution 3)): wild type size; inhibition of plaque number ([2]; 17.6 μM (dilution 3)): not significant inhibition of plaque number; plaque size (diameter) ([2]; 56 μM, untreated plaques approx. 1.5 mm): approx. 0.7 mm; plaque number ([2]; 177 μM): reduced in number; inhibition of virus growth in cells ([2]; plaque inhibition assay, Vero cells): effectively inhibited virus growth; monolayer appearance ([3]; 5.6 μM (dilution 4)): normal microscopically; monolayer appearance ([3]; 17.6 μM (dilution 3)): normal microscopically; cytotoxicity grade (density of the monolayer) ([3]; 56 μM): no cytotoxicity; effect on monolayer ([3]; 177 μM, compared to cell control wells): moderate thinning and moderately less intense staining of the monolayer
